Values quoted from earlier work as cited in publication PMC6173406, “Design and evaluation of selective butyrylcholinesterase inhibitors based on Cinchona alkaloid scaffold” (PLoS ONE, 2018).

Target: T1, human BChE (Homo sapiens, UniProt P06276)
T1 construct: gift of Dr. F. Nachon (Département de Toxicologie, Armed Forces Biomedical Research Institute, France)
Conditions: cited from earlier work

T1 sequence (P06276 29-602): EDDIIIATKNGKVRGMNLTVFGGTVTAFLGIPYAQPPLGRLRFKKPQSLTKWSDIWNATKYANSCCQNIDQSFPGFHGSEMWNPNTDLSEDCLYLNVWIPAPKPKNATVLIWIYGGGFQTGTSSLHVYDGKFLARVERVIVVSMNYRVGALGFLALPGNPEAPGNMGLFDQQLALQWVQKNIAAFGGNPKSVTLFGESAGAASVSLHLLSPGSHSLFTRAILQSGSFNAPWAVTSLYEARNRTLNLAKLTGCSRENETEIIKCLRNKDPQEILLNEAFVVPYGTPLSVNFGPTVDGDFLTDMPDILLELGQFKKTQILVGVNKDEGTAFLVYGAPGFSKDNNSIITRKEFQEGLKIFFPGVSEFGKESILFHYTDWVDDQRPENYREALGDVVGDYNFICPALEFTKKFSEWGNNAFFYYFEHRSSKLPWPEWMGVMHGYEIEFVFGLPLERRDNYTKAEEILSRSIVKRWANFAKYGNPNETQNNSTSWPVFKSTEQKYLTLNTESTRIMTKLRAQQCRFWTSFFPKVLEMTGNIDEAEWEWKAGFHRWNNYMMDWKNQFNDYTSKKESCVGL

Q: Which “BChE Ks” value does the source give for `CCN(CC)C(C)CN1c2ccccc2Sc2ccccc21` (centres unmarked) [Ethopropazine] here?
A: Its value is 0.69 ± 0.14 mM.

Q: What about the Ki (read-out: BChE Ki) of the same compound?
A: The Ki was 160 ± 30 nM.
